Source: patent publication US20240124610A1, “METHODS FOR TREATING HER2-NEGATIVE OR HER2-LOW CANCER” (Washington University, priority 2022, published 2024)
“Also recorded” adds a separate entry of the source.

Columns and labels:
[1] = test system: ZR751 cells overexpressing BCAR4 full length or gene fusions; test: Cell viability under lapatinib treatment (FIG. 24); assay type: cell-based; conditions: ZR751 cells overexpressing BCAR4 full length or gene fusions vs control cells without BCAR4, increased lapatinib
[2] = test system: HER2/HER3 signaling in ZR-75-1 cells; test: Western blot of HER3/AKT signaling in lapatinib-treated cells (FIG. 29D); assay type: cell-based; set-up: dose or concentration left out as unconfirmed; conditions: ZR-75-1 cells expressing full length BCAR4 or gene fusions
Description: Antibodies against FLAG (2368S; RRID:AB_2217020, 1:1000; Cell Signaling Technology), actin (3700S; RRID:AB_2242334, 1:10,000; Cell Signaling Technology), Goat anti-mouse or anti-rabbit peroxidase-conjugated secondary antibodies (Thermo Fisher Scientific) were used for experiments. Protein samples were prepared with ice-cold RIPA lysis buffer (25 mmol/L Tris pH7.5, 1% NP40, 0.1% SDS, 150 mmol/L NaCl, 0.5% sodium deoxycholate, and 1× Halt Protease Inhibitor Cocktail; Thermo Fisher Scientific). Lysate was subjected to a short sonication and then clarified by centrifugation at maximum speed, 4° C. for 10 minutes. Protein concentration was determined with the DC Protein Assay (BioRad). Samples were diluted in loading buffer, boiled, and equal protein concentrations (20-30 mg) loaded and resolved by SDS-polyacrylamide gel electrophoresis in 12% or 4% to 12% Bolt Bis-Tris precast gels (Invitrogen). Gels were transferred at 60° C. for 1 hour to a nitrocellulose membrane (BioRad). Proteins were detected with specific antibodies and visualized and quantified on the ChemDoc MP Imaging System (BioRad) using secondary antibodies and Clarity Western ECL Substrate (Thermo Fisher Scientific).

BCAR4-expressing cells = test: Cell growth under lapatinib treatment (FIG. 42); assay type: cell-based; conditions: BCAR4-expressing cells treated with lapatinib
Source text: In breast cancer HER3 preferentially binds to HER2 to form a heterodimer.

[3] = test system: patients expressing BCAR4; conditions: letrozole (AI treatment); public data GSE41994; FIG. 39; cited from earlier work
breast cancer patients = test: Survival analysis of tamoxifen-treated breast cancer patients by BCAR4 expression; assay type: in vivo, human
Source text: FIG. 25 is a survival curve showing BCAR4-positive patients (blue) have worse outcome when treated with tamoxifen in accordance with the present disclosure.
BCAR4+ is categorized as the top 20% and BCAR4− as the bottom 80%.

[4] = test system: MCF7 (ER+/HER2-negative) cells expressing full length BCAR4 or LITAF-BCAR4 gene fusion; test: Tamoxifen treatment of BCAR4-overexpressing breast cancer cells (FIG. 37); assay type: cell-based; conditions: in vitro
Source text: FIG. 37 is a graph showing BCAR4 gene fusion-expressing cells are resistance to Tamoxifen treatment in breast cancer in accordance with the present disclosure. MCF7 (ER+/HER2-negative) overexpressing cell lines expressing full length BCAR4 (B4) or LITAF-BCAR4 gene fusion (LB) were used.
BCAR4 gene fusion-expressing cells are resistant to Tamoxifen treatment in breast cancer (see e.g., FIG. 37). It is known that full length BCAR4 is resistant to tamoxifen therapy, but no one has shown that BCAR4 gene fusions cause resistance. BCAR4-fusions express only the 4th exon of BCAR4 gene.

In the case of `CS(=O)(=O)CCNCc1ccc(-c2ccc3ncnc(Nc4ccc(OCc5cccc(F)c5)c(Cl)c4)c3c2)o1` [lapatinib], the cell viability [1] is reported as “decreased cell viability”, the “phosphorylation of HER3 and downstream activation of AKT” value [2] is reported as “attenuated these changes; also recorded: inhibited” and the “phosphorylation of HER3 and downstream activation of AKT” value ([2]; listed as Lapatinib) is reported as “lose HER3 activation”. For the same compound, the cell growth (BCAR4-expressing cells) was “decreased growth”.

For `N#Cc1ccc(C(c2ccc(C#N)cc2)n2cncn2)cc1` [letrozole], the “Progression Free Survival of top 25% of patients expressing BCAR4” value [3] is given as “worse Progression Free Survival”.

In the case of `CC/C(=C(\c1ccccc1)c1ccc(OCCN(C)C)cc1)c1ccccc1` [tamoxifen], the “outcome of BCAR4-high patients” value (breast cancer patients; tamoxifen only treatment, TCGA cohort (n=186), FIG. 35) is reported as “worse outcomes”, the “distant metastasis free survival of BCAR4-high patients” value (breast cancer patients; tamoxifen treatment, GSE6532 cohort, FIG. 36) is reported as “worse distant metastasis free survival” and the “outcome of early stage BCAR4-positive vs BCAR4-negative patients” value (breast cancer patients; tamoxifen, microarray data of early-stage breast cancer patients, FIG. 25) is reported as “poor outcome”. The “response to Tamoxifen treatment” value [4] was “resistant”.
